How the values were obtained:
[1] = tested on: complementary RNA; assay: Thermal denaturation (UV melting) of AON duplexes with complementary RNA; format: binding; conditions: for Tm/° C. with RNA: 1 μM of each strand, medium salt buffer pH 7.5, average of at least three runs; for ΔTm (Tm relative to RNA compliment): relative to native AON 1/RNA duplex
Procedure: All 17 modified AONs have been purified as a single component on PAGE (20% polyacrylamide with 7 Molar urea), extracted with 0.3 M NaOAc and desalted with C-18 reverse phase cartridge to give AONs in >99% purity and correct mass have been obtained by MALDI-TOF mass spectroscopy for each one them (Table 1). Determination of the Tm of the AON/RNA hybrids was carried out in the following buffer: 57 mM Tris-HCl (pH 7.5), 57 mM KCl, 1 mM MgCl2. Absorbance was monitored at 260 nm in the temperature range from 20° C. to 90° C. using UV spectrophotometer equipped with Peltier temperature programmer with the heating rate of 1° C. per minute. Prior to measurements, the samples (1 μM of AON and 1 μM RNA mixture) were pre-annealed by heating to 90° C. for 5 min followed by slow cooling to 4° C. and 30 min equilibration at this temperature and are average of at least three independent runs.

[2] = tested on: complementary DNA; assay: Thermal denaturation (UV melting) of AON duplexes with complementary DNA; format: binding; conditions: for Tm/° C. with DNA: 1 μM of each strand, medium salt buffer pH 7.5, average of at least three runs; for ΔTm* (Tm relative to DNA compliment): relative to native AON 1/DNA duplex
[3] = Stability of 5′-32P-labeled AONs in human blood serum (PAGE autoradiography); format: in vitro ADME
Procedure: FIG. 4. Autoradiograms of 20% denaturing PAGE showing degradation patterns of 5′-^32P-labeled AONs in human blood serum (Table 1 for all AON sequences). Inset A: AON 1 and LNA-modified AONs 2-5. Inset B: Carbocyclic-LNA-modified AONs 6-9. Inset C: Carbocyclic-ENA-modified AONs 10-13 and Inset D: aza-ENA-modified AONs 14-17. Time points are taken after 0, ½, 1 h, 2 h, 5 h, 7 h, 9 h, 12 h, for AONs 1-5 and 0 h, 6 h, 8 h, 12 h, 24 h, 36 h and 48 h of incubation for AONs 6-17 at 21° C. (see Experimental Section for details).
Modified sequences (Table 1), ^32P-labeled at 5′-ends, were digested in human blood serum at 21° C. as shown in the PAGE autoradiograms (Insets A, B, C and D in FIG. 4). In order to understand
AONs (6 μL) at 2 μM concentration (5′-end ^32P labeled with specific activity 80 000 cpm) were incubated in […] of human blood serum (male AB) at 21° C. (total reaction volume was 36 μL) and the experiments were repeated twice up to 48 h. Aliquots (3 μL) were taken at 0, 30 min, 1, 2, 5, 7, 8, 9, 12, 24, 36, 48 h and quenched with 7 μL of solution containing 8 M urea and 50 mM EDTA, resolved in 20% polyacrylamide denaturing (7 M urea) gel electrophoresis and visualized by autoradiography. […] Since no new prominent cleavage products were found toward the later time points, we considered those prominent stable initial fragments as 100% during the last time points (12-48 h).

[4] = molecular target: E. coli RNase H1 (Escherichia coli, UniProt P0A7Y4); conditions: AON/RNA duplex
Chain of E. coli RNase H1 (P0A7Y4 whole entry): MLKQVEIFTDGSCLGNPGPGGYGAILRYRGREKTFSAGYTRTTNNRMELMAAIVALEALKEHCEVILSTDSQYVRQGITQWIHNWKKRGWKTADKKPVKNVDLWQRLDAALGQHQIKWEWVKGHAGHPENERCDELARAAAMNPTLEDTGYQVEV
Procedure: Autoradiograms of 20% denaturing PAGE, showing the cleavage kinetics of 5′-^32P-labeled target RNA by E. coli RNase H1 in the AONs 1-17 after 2, 5, 10, 15, 30 and 60 min of incubation. Conditions of cleavage reactions: RNA (0.8 μM) and AONs (4 μM) in buffer containing 20 nM Tris-HCL (pH 8.0), 20 mM KCL, 10 mM Mgcl2, and 0.1 mM DTT at 21° C.; 0.04 U of RNase H1. Inset A: LNA-T modified AONs 2-5 with native AON 1. Inset B: carbocyclic-LNA-T modified AONs 6-9. Inset C: carbocyclic-ENA-T modified AONs 10-13 with native AON 1. Inset D: aza-ENA-T modified AONs 14-17 with native AON 1. The graphs in Insets E, F, G, and H show the kinetics of RNase H1 mediated cleavage of the target RNA, the remaining fraction of target RNA is measured densitometrically and plotted as a function of time fitted to a single exponential decay function. Inset E: AON 1 with AONs 2-5. Inset F: for AON 1 with AONs 6-9. Inset G: AON 1 and AONs 10-13. Inset H: AON 1 and AONs 14-17.
The cleavage rates of RNase H digestion were determined by densitometric quantification of gels and subsequently by plotting the uncleaved RNA fraction as a function of time (Insets E-H in FIG. 6). The reaction rates were obtained by fitting the degradation curves to single-exponential decay functions.

Row | Substance | Tm/° C. with RNA [1] [°C] | ΔTm (Tm relative to RNA compliment) [1] | Tm/° C. with DNA [2] [°C] | ΔTm* (Tm relative to DNA compliment) [2] | also measured
1 | 3′-d(CTT(LNA)CTTTTTTACTTC)-5′ (antisense CTTCTTTTTTACTTC; LNA-T at position 3 from 3'-end, chemistry not fully specified) [AON 2, LNA-T modified AON, position 3 from 3′-end] | 48 | +4 °C | 47 | +2 °C | serum stability compared with native AON 1 ([3]; human blood serum cleavage pattern): only slightly more stable than the native counterpart; time to full degradation ([3]; human blood serum, 21° C.): 9 h; time to give the n−1 fragment ([3]; human blood serum, 21° C.): 35 min; time to give the n−2 fragment as major product ([3]; human blood serum, 21° C.): 5 h
2 | 3′-d(CTTCTTTTTT(aza-ENA)ACTTC)-5′ (antisense CTTCTTTTTTACTTC; aza-ENA-T at position 10 from 3'-end, chemistry not fully specified) [AON 17, aza-ENA-T modified AON, position 10 from 3′-end] | 48 | +4 °C | 42 | −3 °C | 
3 | 3′-d(CTTCTTTT(6-carbo)TTACTTC)-5′ [AON 12] | 45.5 | +1.5 °C | 40.0 | −5.0 °C | 
4 | 3′-d(CTT(6-carbo)CTTTTTTACTTC)-5′ (antisense CTTCTTTTTTACTTC; carbocyclic-ENA-T at position 3 from 3'-end, chemistry not fully specified) [AON 10, carbocyclic-ENA-T modified AON, position 3 from 3′-end] | 45.5 | +1.5 °C | 43.5 | −1.5 °C | time to give the n−1 fragment (hydrolysis of 3′-terminal nucleotide) ([3]; human blood serum, 21° C.): 2 h
5 | 3′-d(CTTCTT(aza-ENA)TTTTACTTC)-5′ (antisense CTTCTTTTTTACTTC; aza-ENA-T at position 6 from 3'-end, chemistry not fully specified) [AON 15, aza-ENA-T modified AON, position 6 from 3′-end] | 46.5 | +2.5 °C | 42.5 | −2.5 °C | 
6 | 3′-d(CTT(5-carbo)CTTTTTTACTTC)-5′ (antisense CTTCTTTTTTACTTC; carbocyclic-LNA-T at position 3 from 3'-end, chemistry not fully specified) [AON 6, carbocyclic-LNA-T modified AON, position 3 from 3′-end] | 47.5 | +3.5 °C | 45 | 0.00 °C | time to give the n−1 fragment (hydrolysis of 3′-terminal nucleotide) ([3]; human blood serum, 21° C.): 2 h
7 | 3′-d(CTTCTT(5-carbo)TTTTACTTC)-5′ (antisense CTTCTTTTTTACTTC; carbocyclic-LNA-T at position 6 from 3'-end, chemistry not fully specified) [AON 7, carbocyclic-LNA-T modified AON, position 6 from 3′-end] | 49 | +5 °C | 44 | −1.00 °C | 
8 | 3′-d(CTTCTTTT(aza-ENA)TTACTTC)-5′ (antisense CTTCTTTTTTACTTC; aza-ENA-T at position 8 from 3'-end, chemistry not fully specified) [AON 16, aza-ENA-T modified AON, position 8 from 3′-end] | 47.5 | +3.5 °C | 42 | −3 °C | 
9 | 3′-d(CTTCTTTTTT(6-carbo)ACTTC)-5′ [AON 13] | 45.5 | +1.5 °C | 39.5 | −5.5 °C | 
10 | 3′-d(CTTCTT(6-carbo)TTTTACTTC)-5′ [AON 11] | 45.5 | +1.5 °C | 39.5 | −5.5 °C | 
11 | 3′-d(CTTCT T(LNA)TTTTACTTC)-5′ [AON 3] | 49 | +5 °C | 46.5 | +1.5 °C | 
12 | (1R,3R,4R,5R,7S)-7-(2-(Cyanoethoxy-(diisopropylamino)-phosphinoxy)-1-(4,4′-dimethoxytrityloxy methyl)-3-(thymin-1-yl)-2-oxa-bicyclo[2.2.1]heptane [Compound 14] | 48 | +4 °C | 44.5 | −0.5 °C | 
13 | 3′-d(CTTCTTTTTTACTTC)-5′ (DNA, backbone not given here) [AON 1, native unmodified 15mer DNA antisense oligonucleotide] | 44 |  | 45 |  | RNase H cleavage pattern of the RNA compliment [4]: cleaved quite randomly with a slight preference after A-8 position; time to full degradation ([3]; human blood serum, 21° C.): ≤ 12 h
14 | 3′-d(CTTCTTTTTT(LNA)ACTTC)-5′ (antisense CTTCTTTTTTACTTC; LNA-T at position 10 from 3'-end, chemistry not fully specified) [AON 5, LNA-T modified AON, position 10 from 3′-end] | 49 | +5 °C | 46 | +1 °C | 
15 | 3′-d(CTT(aza-ENA)CTTTTTTACTTC)-5′ (antisense CTTCTTTTTTACTTC; aza-ENA-T at position 3 from 3'-end, chemistry not fully specified) [AON 14, aza-ENA-T modified AON, position 3 from 3′-end] |  |  |  |  | time to give the n−1 fragment (hydrolysis of 3′-terminal nucleotide) ([3]; human blood serum, 21° C.): ≤ 5 h; fraction of n−1 fragment ([3]; human blood serum, after 12 h): ca. 65%; fraction of n−2 fragment ([3]; human blood serum, after 12 h): ~35%; fraction of n−1 fragment ([3]; human blood serum, within 5 h): ca. 85%; fraction of n−2 fragment ([3]; human blood serum, within 5 h): ca. 15%
16 | 3′-d(CTTCTTTT(LNA)TTACTTC)-5′ (antisense CTTCTTTTTTACTTC; LNA-T at position 8 from 3'-end, chemistry not fully specified) [AON 4, LNA-T modified AON, position 8 from 3′-end] | 49 | +5 °C | 45.0 | 0.0 °C | 
17 | 3′-d(CTTCTTTT(5-carbo)TTACTTC)-5′ (antisense CTTCTTTTTTACTTC; carbocyclic-LNA-T at position 8 from 3'-end, chemistry not fully specified) [AON 8, carbocyclic-LNA-T modified AON, position 8 from 3′-end] | 48 | +4 °C | 44 | −1.00 °C | 
18 | 3′-d(CTTCTTTTTT(5-carbo)ACTTC)-5′ (antisense CTTCTTTTTTACTTC; carbocyclic-LNA-T at position 10 from 3'-end, chemistry not fully specified) [AON 9, carbocyclic-LNA-T modified AON, position 10 from 3′-end] | 47.5 | +3.5 °C | 43.0 | −2.00 °C | 
